Experimental data reported in US20240408098A1, “COMBINATIONS OF KRAS G12D INHIBITORS WITH PI3Ka INHIBITORS AND RELATED METHODS OF TREATMENT” (MIRATI THERAPEUTICS, INC., priority 2021, published 2024).

Columns and labels:
Assay type in all cases: in vivo
[1] = tested on: GP2D colorectal cancer cell line; assay: GP2D xenograft in nude/nude mice, average tumor volumes
Description: (§1) Immunocompromised nude/nude mice are inoculated in the right hind flank with cells harboring a KRas G12D mutation. When tumor volumes reach between 200-400 mm^3 in size, the mice are divided into four to five groups of 5 mice each. The first group is administered vehicle only. […] The fourth group is administered the single agent dose of the KRas G12D inhibitor using the twice daily for 2 sequential days followed by 5 days off schedule in combination with the single agent dose of Irinotecan. The treatment period varies from cell line to cell line but typically is between 15-22-days. Tumor volumes are measured using a caliper every two-three days and tumor volumes are calculated by the formula: […].
20 to 25 nude/nude mice per study were inoculated in the right hind limb with 5×10^6 LS180 cells, AsPC-1 cells, GP2D cells, or Panc 02.03 cells. When tumor volumes reached ˜200 mm3-400 mm3 (study day 0) 5 mice in each of the groups were administered i.p. vehicle only (10% captisol in 50 mM citrate buffer pH 5.0), 30 mg/kg of Kras G12D inhibitor MRTX1133 (10% captisol in 50 mM citrate buffer, pH 5.0) either on the twice daily schedule or the twice daily for 2 consecutive days followed by 5 days off schedule, 15 mg/kg once daily of the BYL719 (0.5% methylcellulos) PI3Ka inhibitor, or 30 mg/kg of Kras G12D inhibitor on either schedule and BYL719. Tumor volumes, measured at pre-specified days, for the five mice per group were averaged and are reported for LS180, AsPC-1, GP2D, and Panc 02.03 in Tables 1, 2, 3, and 4, respectively. […]

[2] = tested on: PANC0203 pancreatic cancer cell line; assay: Panc 02.03 xenograft in nude/nude mice, average tumor volumes; details: 15 mg/kg QD
Description: as §1
(§2) 20 to 25 nude/nude mice per study were inoculated in the right hind limb with 5×10^6 LS180 cells, AsPC-1 cells, GP2D cells, or Panc 02.03 cells. When tumor volumes reached ˜200 mm3-400 mm3 (study day 0) 5 mice in each of the groups were administered i.p. vehicle only (10% captisol in 50 mM citrate buffer pH 5.0), 30 mg/kg of Kras G12D inhibitor MRTX1133 (10% captisol in 50 mM citrate buffer, pH 5.0) either on the twice daily schedule or the twice daily for 2 consecutive days followed by 5 days off schedule, 15 mg/kg once daily of the BYL719 (0.5% methylcellulos) PI3Ka inhibitor, or 30 mg/kg of Kras G12D inhibitor on either schedule and BYL719. Tumor volumes, measured at pre-specified days, for the five mice per group were averaged and are reported for LS180, AsPC-1, GP2D, and Panc 02.03 in Tables 1, 2, 3, and 4, respectively.
20 nude/nude mice were inoculated with Panc 02.03 cells in the hind right flank. When the tumors reached ˜300 mm^3 four treatment groups were established with 5 mice per group.

[3] = tested on: LS180 colon cancer cell line; assay: LS180 xenograft in nude/nude mice, average tumor volumes; details: for Average Tumor Volumes: nude/nude mice, 15 mg/kg QD
Description: as §1, §2
25 nude/nude mice were inoculated with LS180 cells in the hind right flank. When the tumors reached ˜250 mm^3 five treatment groups were established with 5 mice per group.

[4] = tested on: AsPC-1 pancreatic cancer cell line; assay: AsPC-1 xenograft in nude/nude mice, average tumor volumes; details: for tumor growth inhibition: single agent; for Average Tumor Volumes: nude/nude mice, 15 mg/kg QD
Description: as §1, §2
30 nude/nude mice were inoculated with AsPC-1 cells in the hind right flank. When the tumors reached ˜300 mm^3 six treatment groups were established with 5 mice per group.

For `Cc1nc(NC(=O)N2CCC[C@H]2C(N)=O)sc1-c1ccnc(C(C)(C)C(F)(F)F)c1` [BYL719, (2S)-N1-[4-Methyl-5-[2-(2,2,2-trifluoro-1,1-dimethylethyl)-4-pyridinyl]-2-thiazolyl]-1,2-pyrrolidinedicarboxamide], the “Average Tumor Volumes” value ([1]; 15 mg/kg QD, Study Day 1) was 307.604 mm^3, the “Average Tumor Volumes” value ([1]; 15 mg/kg QD, Study Day 7) was 369.474 mm^3 and the “Average Tumor Volumes” value ([1]; 15 mg/kg QD, Study Day 10) was 395.68 mm^3. The “Average Tumor Volumes” value ([1]; 15 mg/kg QD, Study Day 14) was 467.526 mm^3, the “Average Tumor Volumes” value ([1]; 15 mg/kg QD, Study Day 17) was 546.962 mm^3 and the “Average Tumor Volumes” value ([1]; 15 mg/kg QD, Study Day 21) was 681.056 mm^3. For the same compound, the “Average Tumor Volumes” value ([1]; 15 mg/kg QD, Study Day 26) was 901.144 mm^3, the “Average Tumor Volumes” value ([1]; 15 mg/kg QD, Study Day 28) was 1053.732 mm^3 and the “Average Tumor Volumes” value ([1]; 15 mg/kg QD, Study Day 31) was 1102.87 mm^3. For the same compound, the “Average Tumor Volumes” value ([1]; 15 mg/kg QD, Study Day 35) was 1202.89 mm^3, the “Average Tumor Volumes” value ([2]; Study Day 1) was 330.188 mm^3 and the “Average Tumor Volumes” value ([2]; Study Day 4) was 341.414 mm^3. For the same compound, the “Average Tumor Volumes” value ([2]; Study Day 8) was 367.35 mm^3, the “Average Tumor Volumes” value ([2]; Study Day 11) was 487.664 mm^3 and the “Average Tumor Volumes” value ([2]; Study Day 15) was 572.82 mm^3. For the same compound, the “Average Tumor Volumes” value ([2]; Study Day 18) was 680.306 mm^3, the “Average Tumor Volumes” value ([2]; Study Day 22) was 774.992 mm^3 and the tumor growth inhibition ([3]; 15 mg/kg once daily, single agent, Day 15) was 44%. For the same compound, the “Average Tumor Volumes” value ([3]; Study Day 1) was 273.184 mm^3, the “Average Tumor Volumes” value ([3]; Study Day 4) was 501.45 mm^3 and the “Average Tumor Volumes” value ([3]; Study Day 8) was 799.338 mm^3. For the same compound, the “Average Tumor Volumes” value ([3]; Study Day 11) was 1016.09 mm^3, the “Average Tumor Volumes” value ([3]; Study Day 15) was 1225.468 mm^3 and the tumor growth inhibition ([4]; 15 mg/kg once daily, Day 34) was 0%. For the same compound, the “Average Tumor Volumes” value ([4]; Study Day 1) was 331.29 mm^3, the “Average Tumor Volumes” value ([4]; Study Day 6) was 429.172 mm^3 and the “Average Tumor Volumes” value ([4]; Study Day 9) was 473.138 mm^3. For the same compound, the “Average Tumor Volumes” value ([4]; Study Day 13) was 531.394 mm^3, the “Average Tumor Volumes” value ([4]; Study Day 16) was 580.446 mm^3 and the “Average Tumor Volumes” value ([4]; Study Day 20) was 688.564 mm^3. The “Average Tumor Volumes” value ([4]; Study Day 23) was 742.98 mm^3, the “Average Tumor Volumes” value ([4]; Study Day 27) was 918.424 mm^3 and the “Average Tumor Volumes” value ([4]; Study Day 30) was 1283 mm^3. For the same compound, the “Average Tumor Volumes” value ([4]; Study Day 34) was 1622 mm^3.
With `C#Cc1c(F)ccc2cc(O)cc(-c3ncc4c(N5C[C@H]6CC[C@@H](C5)N6)nc(OC[C@@]56CCCN5C[C@H](F)C6)nc4c3F)c12` [MRTX1133, 4-(4-((1R,5S)-3,8-diazabicyclo[3.2.1]octan-3-yl)-8-fluoro-2-(((2R,7aS)-2-fluorohexahydro-1H-pyrrolizin-7a-yl)methoxy)pyrido[4,3-d]pyrimidin-7-yl)-5-ethynyl-6-fluoronaphthalen-2-ol] the “Average Tumor Volumes” value ([1]; 30 mg/kg BID Daily i.p., Study Day 1) was 300.778 mm^3, the “Average Tumor Volumes” value ([1]; 30 mg/kg BID Daily i.p., Study Day 7) was 263.132 mm^3 and the “Average Tumor Volumes” value ([1]; 30 mg/kg BID Daily i.p., Study Day 10) was 237.628 mm^3. The “Average Tumor Volumes” value ([1]; 30 mg/kg BID Daily i.p., Study Day 14) was 221.728 mm^3, the “Average Tumor Volumes” value ([1]; 30 mg/kg BID Daily i.p., Study Day 17) was 221.788 mm^3 and the “Average Tumor Volumes” value ([1]; 30 mg/kg BID Daily i.p., Study Day 21) was 242.56 mm^3. The “Average Tumor Volumes” value ([1]; 30 mg/kg BID Daily i.p., Study Day 26) was 254.57 mm^3, the “Average Tumor Volumes” value ([1]; 30 mg/kg BID Daily i.p., Study Day 28) was 307.03 mm^3 and the “Average Tumor Volumes” value ([1]; 30 mg/kg BID Daily i.p., Study Day 31) was 333.20 mm^3. The “Average Tumor Volumes” value ([1]; 30 mg/kg BID Daily i.p., Study Day 35) was 358.75 mm^3 and the tumor growth inhibition ([4]; 30 mg/kg BID twice weekly, day 34) was 43%.
